Assay results as given in publication PMC6130489, “Caffeic acid methyl and ethyl esters exert potential antidiabetic effects on glucose and lipid metabolism in cultured murine insulin-sensitive cells through mechanisms implicating activation of AMPK” (Pharmaceutical Biology, 2017).

Experiments:
GLUT4 = assay: Western immunoblot GLUT4 protein content in L6 myotubes; format: cell-based, rat; conditions: 50 μM, 18 h, GLUT4/β-actin
Procedure: L6 cells myotubes, H4IIE cells and 3T3-L1 adipocytes were treated with either CAME, CAEE (50 μM each) or vehicle (DMSO) for 18 h. Insulin (100 nM) or aminoimidazole carboxamide ribonucleotide (AICAR; 1 mM) were added to some vehicle-treated wells 30 min prior to the end of the treatment and served as the positives controls. Protein content was assayed by the bicinchoninic acid method (Thermo Scientific Pierce Protein Research, Rockford, IL) standardized to bovine serum albumin. Western immunoblotting was performed as described elsewhere (Eid et al. [2010]). […] Immunoreactive bands were visualized by enhanced chemiluminescence and quantified by the Scion Image program (Scion Corporation, Frederick, MD). […]
Figure 1. […] Cells were treated as previously described, cell surface GLUT4myc was detected by an enzyme-linked colorimetric assay. […] Results represent the means ± SEM of three independent experiments, and 3-4 cells were analyzed for each condition per experiment. *Indicates a significant (p ≤ 0.05) difference, **(p < 0.01) from the vehicle control group as assessed by ANOVA. […] Data are expressed as (D) phospho-AMPK/β-actin, (E) GLUT4/β-actin and (F) GLUT1/β-actin and are given as mean ± SEM from 3 experiments. *p < 0.05 indicates a significant difference, **(p < 0.01) from the vehicle control group.

PPAR-γ = assay: Western immunoblot PPAR-γ in 3T3-L1 adipocytes; format: cell-based, mouse; conditions: 100 μM (Figure 4 legend)
Procedure: Insulin (100 nM) or aminoimidazole carboxamide ribonucleotide (AICAR; 1 mM) were added to some vehicle-treated wells 30 min prior to the end of the treatment and served as the positives controls. Protein content was assayed by the bicinchoninic acid method (Thermo Scientific Pierce Protein Research, Rockford, IL) standardized to bovine serum albumin. Western immunoblotting was performed as described elsewhere (Eid et al. [2010]). Membranes were incubated overnight with phospho-AMPK, phospho-Akt, GLUT4, GLUT1 and β-actin antibodies (1:1000 dilution, Cell Signalling Technology, Danvers, MA), or with PPAR-γ, SREBP-1 (1:200, Santa Cruze Biotechnology, Santa Cruz, CA), followed by incubation with HRP-coupled secondary antibody (1:10,000) for 1 h. Immunoreactive bands were visualized by enhanced chemiluminescence and quantified by the Scion Image program (Scion Corporation, Frederick, MD). Experiments were repeated on 3 different passages of cells, each passage containing all conditions in parallel.
Figure 4. CAME and CAEE inhibit C/EBP-β and PPAR-γ protein expression through mechanisms implicating AMPK pathway. Shown are representative blots of 3T3-adipocytes treated with the maximum nontoxic concentration (100 μM) of either CAME or CAEE. […] Data are expressed as C/EBP-β/β-actin (D), PPAR-γ/β-actin (E), phospho-Akt/pan-Akt (F) and phospho-AMPK/pan-AMPK (G). […]

| SMILES | GLUT4 content, fold compared to DMSO (GLUT4) [fold] | protein level of PPAR-γ (PPAR-γ) |
| --- | --- | --- |
| COC(=O)/C=C/c1ccc(O)c(O)c1 [CAME, CA methyl ester] | ~2.7 | significantly reduced |
| CCOC(=O)/C=C/c1ccc(O)c(O)c1 [CAEE, caffeic acid ethyl ester] | ~3.2 | significantly reduced |
